Key:
mutant P301L human tau = assay: Western blot of tau levels in HeLa cells transfected with mutant P301L human tau; type: cell-based; conditions: treated 24 hours, various doses, pS199-202 antibody
Description: (§1) Compounds effects on tau activity/level were determine by a previously described method (Jinwal et al J. Neurosci. 2009 Sep. 30; 29(39):12079-88). In brief, human tau transfected HeLa Cells were treated with Compounds for 24 hours. Cells were harvested by using MPER reagent containing protease inhibitor and phosphatase inhibitor. Samples were analyzed by western blot. pS199-202 antibody was used to detect phospho tau level. Total tau levels were detected by tau H-150 &/or tau 46 antibodies.
(§2) HeLa cells were transfected with wild-type human tau (A) and mutant P301L human tau (B) (FIG. 1). After 24 hours, cells were treated with either palmadorin M or beauvericin for 24 hours.

wild-type human tau = assay: Western blot of tau levels in HeLa cells transfected with wild-type human tau; type: cell-based; conditions: treated 24 hours; for phosphorylated (pS199-202) wild type tau level: HeLa cells transfected with wild-type human tau, various doses, pS199-202 antibody; for C-terminal tau level (Tau 46 antibody) / N-terminal tau level (Tau H-150 antibody): human tau transfected HeLa cells, wild type and P301L not distinguished
Description: as §1, §2

Structure (SMILES) | phosphorylated (pS199-202) mutant P301L tau level (mutant P301L human tau) | phosphorylated (pS199-202) wild type tau level (wild-type human tau) | C-terminal tau level (Tau 46 antibody) (wild-type human tau) | N-terminal tau level (Tau H-150 antibody) (wild-type human tau)
CC(C)[C@H]1OC(=O)[C@H](Cc2ccccc2)N(C)C(=O)[C@@H](C(C)C)OC(=O)[C@H](Cc2ccccc2)N(C)C(=O)[C@@H](C(C)C)OC(=O)[C@H](Cc2ccccc2)N(C)C1=O [beauvericin] | potent reduction | potent reduction | moderate change in tau level | increase in tau level
C=C1CC[C@@H]2C(C)(C)CCC[C@]2(C)[C@@H]1CC/C(C)=C/C(=O)OC(CO)CO [palmadorin M] | potent reduction | potent reduction | moderate change in tau level | increase in tau level
